In brackets after ≈: the same amount, converted by molar mass. Several values for one entry are separate records, joined by “and”; a condition that tells them apart may be missing. Equal entries are not always repeated. Where two headings read alike, the source gives them in different places.
Experiments:
[1] = target: AChE from electric eel (EeAChE) (Electrophorus electricus, UniProt O42275); experiment: biochemical; type: biochemical
[2] = target: BuChE from equine serum (EqBuChE) (Equus caballus, UniProt P81908); experiment: biochemical; conditions: mean ± SD, n = three independent experiments; BTCh 40 µM; read-out: IC50 BuChE
Sequence of BuChE from equine serum (EqBuChE) (P81908 whole entry): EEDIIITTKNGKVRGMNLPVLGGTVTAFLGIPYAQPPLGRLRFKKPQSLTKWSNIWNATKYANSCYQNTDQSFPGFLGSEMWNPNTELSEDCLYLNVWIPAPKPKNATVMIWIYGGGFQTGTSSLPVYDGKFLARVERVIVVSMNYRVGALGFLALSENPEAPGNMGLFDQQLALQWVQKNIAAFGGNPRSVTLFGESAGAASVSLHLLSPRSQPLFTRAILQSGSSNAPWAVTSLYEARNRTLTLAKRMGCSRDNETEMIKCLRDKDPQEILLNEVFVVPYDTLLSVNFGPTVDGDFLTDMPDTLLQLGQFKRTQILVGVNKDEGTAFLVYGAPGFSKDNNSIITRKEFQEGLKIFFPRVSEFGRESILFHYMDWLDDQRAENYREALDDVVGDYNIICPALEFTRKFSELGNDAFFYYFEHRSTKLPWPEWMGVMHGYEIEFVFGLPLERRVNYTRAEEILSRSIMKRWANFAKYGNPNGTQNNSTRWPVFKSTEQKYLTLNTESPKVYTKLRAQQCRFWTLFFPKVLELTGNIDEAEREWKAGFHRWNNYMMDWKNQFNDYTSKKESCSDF

[3] = test system: Staphylococcus aureus ATCC 29213; experiment: Antibacterial microdilution broth method (EUCAST); type: cell-based
[4] = test system: methicillin-resistant Staphylococcus aureus ATCC 43300; experiment: Antibacterial microdilution broth method (EUCAST); type: cell-based; conditions: ATCC 43300 / MRSA
[5] = test system: Staphylococcus epidermidis ATCC 12228; experiment: Antibacterial microdilution broth method (EUCAST); type: cell-based
[6] = test system: Enterococcus faecalis ATCC 29212; experiment: Antibacterial microdilution broth method (EUCAST); type: cell-based
[7] = test system: Escherichia coli ATCC 25922; experiment: Antibacterial microdilution broth method (EUCAST); type: cell-based
[8] = test system: Acinetobacter baumannii ATCC 19606; experiment: Antibacterial microdilution broth method (EUCAST); type: cell-based
[9] = test system: Pseudomonas aeruginosa ATCC 27853; experiment: Antibacterial microdilution broth method (EUCAST); type: cell-based
[10] = test system: Klebsiella pneumoniae ATCC 10031; conditions: for MIC KP 24 h: 24 h incubation; for MIC KP 48 h: 48 h incubation
[11] = test system: Candida albicans ATCC 24443; experiment: microbe, parasite or virus in culture; type: cell-based
[12] = test system: Candida krusei ATCC 6258; experiment: microbe, parasite or virus in culture; type: cell-based; conditions: Pichia kudriavzevii
[13] = test system: Candida parapsilosis ATCC 22019; experiment: microbe, parasite or virus in culture; type: cell-based; conditions: Lodderomyces parapsilosis
[14] = test system: Candida tropicalis ATCC 750; experiment: microbe, parasite or virus in culture; type: cell-based
[15] = test system: Trichophyton interdigitale ATCC 9533; experiment: microbe, parasite or virus in culture; type: cell-based
[16] = ATCC29213, 24 h, read-out: MIC SA 24 h
[17] = ATCC29213, 48 h, read-out: MIC SA 48 h
[18] = ATCC12228, 24 h, read-out: MIC SE 24 h
[19] = ATCC12228, 48 h, read-out: MIC SE 48 h
[20] = ATCC29212, 24 h, read-out: MIC EF 24 h
[21] = ATCC29212, 48 h, read-out: MIC EF 48 h
[22] = ATCC25922, 24 h, read-out: MIC EC 24 h
[23] = ATCC25922, 48 h, read-out: MIC EC 48 h
[24] = ATCC19606, 24 h, read-out: MIC ACI 24 h
[25] = ATCC19606, 48 h, read-out: MIC ACI 48 h
[26] = ATCC27853, 24 h, read-out: MIC PA 24 h
[27] = ATCC27853, 48 h, read-out: MIC PA 48 h
[28] = mean ± SD, n = three independent experiments, ATCh 40 µM, read-out: IC50 AChE
[29] = ATCC24443, 24 h, read-out: MIC CA 24 h
[30] = ATCC24443, 48 h, read-out: MIC CA 48 h
[31] = ATCC6258, 24 h, read-out: MIC CK 24 h
[32] = ATCC6258, 48 h, read-out: MIC CK 48 h
[33] = ATCC22019, 24 h, read-out: MIC CP 24 h
[34] = ATCC22019, 48 h, read-out: MIC CP 48 h
[35] = ATCC750, 24 h, read-out: MIC CT 24 h
[36] = ATCC750, 48 h, read-out: MIC CT 48 h
[37] = ATCC9533, 72 h, read-out: MIC TI 72 h
[38] = ATCC9533, 120 h, read-out: MIC TI 120 h

Sequence of AChE from electric eel (EeAChE) (O42275 24-633): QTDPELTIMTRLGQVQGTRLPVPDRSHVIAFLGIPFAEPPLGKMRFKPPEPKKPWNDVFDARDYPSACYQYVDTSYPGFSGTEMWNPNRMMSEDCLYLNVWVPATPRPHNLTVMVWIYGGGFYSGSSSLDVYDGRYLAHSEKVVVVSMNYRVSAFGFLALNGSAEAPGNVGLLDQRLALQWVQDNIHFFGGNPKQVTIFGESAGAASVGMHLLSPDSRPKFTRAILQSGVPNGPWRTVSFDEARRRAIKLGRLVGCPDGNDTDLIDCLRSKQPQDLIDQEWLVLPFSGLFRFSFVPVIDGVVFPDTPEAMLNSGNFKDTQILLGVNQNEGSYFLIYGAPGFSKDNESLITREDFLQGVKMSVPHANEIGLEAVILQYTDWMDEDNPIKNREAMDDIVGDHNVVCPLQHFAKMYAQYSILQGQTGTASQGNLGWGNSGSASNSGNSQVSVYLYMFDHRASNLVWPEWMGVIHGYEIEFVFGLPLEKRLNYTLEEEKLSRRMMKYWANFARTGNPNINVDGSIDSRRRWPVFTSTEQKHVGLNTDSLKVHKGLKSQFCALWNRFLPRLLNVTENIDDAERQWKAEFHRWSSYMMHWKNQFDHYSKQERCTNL

SMILES: [H]/N=C(\N)NN=Cc1cccc(Cl)c1 [Compound 1c, (E)-2-(3-Chlorobenzylidene)hydrazine-1-carboximidamide]
- IC50 [1]: 43.9 ± 0.76 µM
- Selectivity AChE/BuChE [1]: 1.06
- IC50 [2]: 41.5 ± 3.06 µM

SMILES: [H]/N=C(\N)NN=Cc1ccc(Cl)cc1O [Compound 1f, (E)-2-(4-Chloro-2-hydroxybenzylidene)hydrazine-1-carboximidamide]
- MIC [3, 16]: 500 µM (≈ 106 µg/mL)
- MIC [3, 17]: 500 µM (≈ 106 µg/mL)
- MIC ([4]; 24 h, read-out: MIC MRSA 24 h): 500 µM (≈ 106 µg/mL)
- MIC ([4]; 48 h, read-out: MIC MRSA 48 h): 500 µM (≈ 106 µg/mL)
- MIC [5, 18]: 125 µM (≈ 26.6 µg/mL)
- MIC [5, 19]: 125 µM (≈ 26.6 µg/mL)
- MIC [6, 20]: 500 µM (≈ 106 µg/mL)
- MIC [6, 21]: 500 µM (≈ 106 µg/mL)
- MIC [7, 22]: 500 µM (≈ 106 µg/mL)
- MIC [7, 23]: 500 µM (≈ 106 µg/mL)
- MIC [8, 24]: 500 µM (≈ 106 µg/mL)
- MIC [8, 25]: 500 µM (≈ 106 µg/mL)
- MIC [9, 26]: 500 µM (≈ 106 µg/mL)
- MIC [9, 27]: 500 µM (≈ 106 µg/mL)
- Selectivity AChE/BuChE [1]: 1.40
- IC50 [1, 28]: 42.8 ± 1.33 µM
- IC50 [2]: 30.6 ± 1.51 µM
- MIC KP 24 h [10]: 500 µM (≈ 106 µg/mL)
- MIC KP 48 h [10]: 500 µM (≈ 106 µg/mL)

SMILES: [H]/N=C(\N)NN=Cc1cc(Cl)ccc1O [Compound 1g, (E)-2-(5-Chloro-2-hydroxybenzylidene)hydrazine-1-carboximidamide]
- MIC [3, 16]: 250 µM (≈ 53.2 µg/mL)
- MIC [3, 17]: 250 µM (≈ 53.2 µg/mL)
- MIC ([4]; 24 h, read-out: MIC MRSA 24 h): 500 µM (≈ 106 µg/mL)
- MIC ([4]; 48 h, read-out: MIC MRSA 48 h): 500 µM (≈ 106 µg/mL)
- MIC [5, 18]: 62.5 µM (≈ 13.3 µg/mL)
- MIC [5, 19]: 62.5 µM (≈ 13.3 µg/mL)
- MIC [6, 20]: 125 µM (≈ 26.6 µg/mL)
- MIC [6, 21]: 250 µM (≈ 53.2 µg/mL)
- MIC [7, 22]: 500 µM (≈ 106 µg/mL)
- MIC [7, 23]: 500 µM (≈ 106 µg/mL)
- MIC [8, 24]: 500 µM (≈ 106 µg/mL)
- MIC [8, 25]: 500 µM (≈ 106 µg/mL)
- MIC [9, 26]: 500 µM (≈ 106 µg/mL)
- MIC [9, 27]: 500 µM (≈ 106 µg/mL)
- Selectivity AChE/BuChE [1]: 0.83
- IC50 [1, 28]: 37.4 ± 0.73 µM
- IC50 [2]: 45.2 ± 0.86 µM
- MIC KP 24 h [10]: 500 µM (≈ 106 µg/mL)
- MIC KP 48 h [10]: 500 µM (≈ 106 µg/mL)

SMILES: [H]/N=C(\N)NN=Cc1c(O)cccc1Cl [Compound 1h, (E)-2-(6-Chloro-2-hydroxybenzylidene)hydrazine-1-carboximidamide]
- MIC [3, 16]: 250 µM (≈ 53.2 µg/mL)
- MIC [3, 17]: 500 µM (≈ 106 µg/mL)
- MIC ([4]; 24 h, read-out: MIC MRSA 24 h): > 500 µM
- MIC ([4]; 48 h, read-out: MIC MRSA 48 h): > 500 µM
- MIC [5, 18]: 125 µM (≈ 26.6 µg/mL)
- MIC [5, 19]: 250 µM (≈ 53.2 µg/mL)
- MIC [6, 20]: > 500 µM
- MIC [6, 21]: > 500 µM
- MIC [7, 22]: > 500 µM
- MIC [7, 23]: > 500 µM
- MIC [8, 24]: 500 µM (≈ 106 µg/mL)
- MIC [8, 25]: 500 µM (≈ 106 µg/mL)
- MIC [9, 26]: > 500 µM
- MIC [9, 27]: > 500 µM
- Selectivity AChE/BuChE [1]: 0.47
- IC50 [1, 28]: 29.5 ± 0.93 µM
- IC50 [2]: 62.3 ± 1.08 µM
- MIC KP 24 h [10]: >500 µM
- MIC KP 48 h [10]: >500 µM

SMILES: [H]/N=C(\N)NN=Cc1cc(I)ccc1O [Compound 1i, (E)-2-(2-Hydroxy-5-iodobenzylidene)hydrazine-1-carboximidamide]
- MIC [3, 16]: 125 µM (≈ 38 µg/mL)
- MIC [3, 17]: 125 µM (≈ 38 µg/mL)
- MIC ([4]; 24 h, read-out: MIC MRSA 24 h): 125 µM (≈ 38 µg/mL)
- MIC ([4]; 48 h, read-out: MIC MRSA 48 h): 125 µM (≈ 38 µg/mL)
- MIC [5, 18]: 250 µM (≈ 76 µg/mL)
- MIC [5, 19]: 250 µM (≈ 76 µg/mL)
- MIC [6, 20]: 500 µM (≈ 152 µg/mL)
- MIC [6, 21]: 500 µM (≈ 152 µg/mL)
- MIC [7, 22]: 250 µM (≈ 76 µg/mL)
- MIC [7, 23]: 250 µM (≈ 76 µg/mL)
- MIC [8, 24]: 500 µM (≈ 152 µg/mL)
- MIC [8, 25]: 500 µM (≈ 152 µg/mL)
- MIC [9, 26]: 500 µM (≈ 152 µg/mL)
- MIC [9, 27]: 500 µM (≈ 152 µg/mL)
- MIC [11, 29]: 500 µM (≈ 152 µg/mL)
- MIC [11, 30]: 500 µM (≈ 152 µg/mL)
- MIC [12, 31]: 250 µM (≈ 76 µg/mL)
- MIC [12, 32]: 250 µM (≈ 76 µg/mL)
- MIC [13, 33]: 250 µM (≈ 76 µg/mL)
- MIC [13, 34]: 250 µM (≈ 76 µg/mL)
- MIC [14, 35]: 500 µM (≈ 152 µg/mL)
- MIC [14, 36]: 500 µM (≈ 152 µg/mL)
- MIC [15, 37]: 62.5 µM (≈ 19 µg/mL)
- MIC [15, 38]: 125 µM (≈ 38 µg/mL)
- Selectivity AChE/BuChE [1]: 1.27
- IC50 [1, 28]: 25 ± 0.5 µM
- IC50 [2]: < 20 µM and 19.8 µM
- MIC KP 24 h [10]: 250 µM (≈ 76 µg/mL)
- MIC KP 48 h [10]: 250 µM (≈ 76 µg/mL)

SMILES: [H]/N=C(\N)NN=Cc1cc(Cl)cc(Br)c1O [Compound 1k, (E)-2-(3-Bromo-5-chloro-2-hydroxybenzylidene)hydrazine-1-carboximidamide]
- MIC [3, 16]: 250 µM (≈ 72.9 µg/mL)
- MIC [3, 17]: 250 µM (≈ 72.9 µg/mL)
- MIC ([4]; 24 h, read-out: MIC MRSA 24 h): 250 µM (≈ 72.9 µg/mL)
- MIC ([4]; 48 h, read-out: MIC MRSA 48 h): 250 µM (≈ 72.9 µg/mL)
- MIC [5, 18]: 125 µM (≈ 36.4 µg/mL)
- MIC [5, 19]: 250 µM (≈ 72.9 µg/mL)
- MIC [6, 20]: 500 µM (≈ 146 µg/mL)
- MIC [6, 21]: 500 µM (≈ 146 µg/mL)
- MIC [7, 22]: 500 µM (≈ 146 µg/mL)
- MIC [7, 23]: 500 µM (≈ 146 µg/mL)
- MIC [8, 24]: > 500 µM
- MIC [8, 25]: > 500 µM
- MIC [9, 26]: > 500 µM
- MIC [9, 27]: > 500 µM
- MIC [11, 29]: 250 µM (≈ 72.9 µg/mL)
- MIC [11, 30]: 500 µM (≈ 146 µg/mL)
- MIC [12, 31]: 500 µM (≈ 146 µg/mL)
- MIC [12, 32]: 500 µM (≈ 146 µg/mL)
- MIC [13, 33]: 500 µM (≈ 146 µg/mL)
- MIC [13, 34]: 500 µM (≈ 146 µg/mL)
- MIC [14, 35]: 500 µM (≈ 146 µg/mL)
- MIC [14, 36]: 500 µM (≈ 146 µg/mL)
- MIC [15, 37]: 125 µM (≈ 36.4 µg/mL)
- MIC [15, 38]: 250 µM (≈ 72.9 µg/mL)
- Selectivity AChE/BuChE [1]: 1.92
- IC50 [1, 28]: 22.4 ± 0.67 µM
- IC50 [2]: < 20 µM and 11.7 µM
- MIC KP 24 h [10]: 250 µM (≈ 72.9 µg/mL)
- MIC KP 48 h [10]: 250 µM (≈ 72.9 µg/mL)

From article PMC8704707 (Pharmaceuticals, 2021)
